In US20120225062A1 (priority 2011, published 2012) one finds IC50 and EC50 data, which are given here for 20 compounds.

One experiment deals with Pim 1 (Homo sapiens, UniProt P11309). Kind of experiment: Pim 1 AlphaScreen assay (high ATP).
Another experiment addresses Pim 3 (Homo sapiens, UniProt Q86V86). In words: Pim 3 AlphaScreen assay (high ATP).
Experiment [1] concerns KMS11 (human myeloma cell line). In words: Cell Proliferation Assay (CellTiter-Glo, 3 days). The format is cell-based. Conditions: KMS-11, 72 h, KMS11-luc cells. In a few lines:
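EC50 from CellTiter-Glo luminescence after 3-day, 37° C compound treatment of KMS11 cells seeded at 2000 per well in IMDM plus 10% FBS.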

In a further experiment the target is Pim 2 (Homo sapiens, UniProt Q9P1W9). Kind of experiment: Pim 2 AlphaScreen assay (high ATP).
Sequence of Pim 2 (Q9P1W9 whole entry): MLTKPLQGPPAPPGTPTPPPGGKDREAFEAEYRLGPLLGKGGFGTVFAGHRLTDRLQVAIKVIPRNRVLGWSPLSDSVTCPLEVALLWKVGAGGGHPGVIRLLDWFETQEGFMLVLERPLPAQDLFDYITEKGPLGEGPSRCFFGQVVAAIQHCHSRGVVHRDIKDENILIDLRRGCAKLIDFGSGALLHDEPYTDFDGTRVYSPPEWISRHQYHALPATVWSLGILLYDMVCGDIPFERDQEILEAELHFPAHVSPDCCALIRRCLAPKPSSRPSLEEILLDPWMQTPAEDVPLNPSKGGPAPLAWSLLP

Molecules are shown by their SMILES.

Sequence of Pim 1 (P11309 whole entry): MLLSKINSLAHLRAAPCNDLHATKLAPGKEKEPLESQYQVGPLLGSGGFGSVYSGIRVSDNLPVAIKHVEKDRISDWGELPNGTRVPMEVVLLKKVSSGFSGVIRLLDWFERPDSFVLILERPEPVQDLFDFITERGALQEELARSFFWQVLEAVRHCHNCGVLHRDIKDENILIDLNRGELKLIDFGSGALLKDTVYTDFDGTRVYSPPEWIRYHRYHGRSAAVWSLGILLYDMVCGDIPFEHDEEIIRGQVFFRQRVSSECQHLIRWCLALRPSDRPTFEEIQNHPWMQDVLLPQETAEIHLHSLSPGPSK
Method for Pim 2: The activity of Pim 1, Pim 2, & Pim 3 is measured using a homogeneous bead based system quantifying the amount of phosphorylated peptide substrate resulting from kinase-catalyzed phosphoryl transfer to a peptide substrate. Compounds to be tested are dissolved in 100% DMSO and directly distributed to a white 384-well plate at 0.25 μl per well. […] This is followed by the addition of 5 μl/well of Pim 1, Pim 2 or Pim 3 kinase in assay buffer (concentrations described below). Final assay concentrations (described below) are in 2.5% DMSO. The reactions are performed for ˜2 hours, then stopped by the addition of 10 μl of 0.75 μg/ml anti-phospho Ser/Thr antibody (Cell Signaling), 10 μg/ml Protein A AlphaScreen beads (Perkin Elmer), and 10 μg/ml streptavidin coated AlphaScreen beads in stop/detection buffer (50 mM EDTA, 95 mM Tris, pH=7.5, 0.01% Tween-20). The stopped reactions are incubated overnight in the dark. The phosphorylated peptide is detected via an oxygen anion initiated chemiluminescence/fluorescence cascade using the Envision plate reader (Perkin Elmer).

Regarding `C[C@H]1C[C@@H](c2ccncc2NC(=O)c2ccc(F)c(-c3c(F)cc(OC4CCOC4)cc3F)n2)C[C@@H](N)[C@@H]1O` (stereo in doubt) [Example 69, N-(4-((1R,3R,4R,5S)-3-amino-4-hydroxy-5-methylcyclohexyl)pyridin-3-yl)-6-(2,6-difluoro-4-((R)-tetrahydrofuran-3-yloxy)phenyl)-5-fluoropicolinamide], the values for the IC50 on Pim 1, on Pim 3 and against Pim 2 were 0.03 nM, 0.89 nM and 2.38 nM, respectively. Besides, the EC50 in experiment [1] turned out to be 60 nM.

For the compound `C[C@H]1C[C@@H](c2ccncc2NC(=O)c2ccc(F)c(-c3c(F)cc(OC4CCOC4)cc3F)n2)C[C@@H](N)[C@@H]1O` (stereo in doubt) [Example 70, N-(4-((1R,3R,4R,5S)-3-amino-4-hydroxy-5-methylcyclohexyl)pyridin-3-yl)-6-(2,6-difluoro-4-((S)-tetrahydrofuran-3-yloxy)phenyl)-5-fluoropicolinamide], the concentration for half-maximal inhibition (IC50) against Pim 1 is 0.04 nM; against Pim 3 it was 1.15 nM; against Pim 2, 4.01 nM. In addition, the EC50 in experiment [1] worked out at 68 nM.

Regarding `C[C@@H]1C[C@H](N)C[C@H](c2ccncc2NC(=O)c2ccc(F)c(-c3c(F)cc(OC4CCOC4)cc3F)n2)C1` (stereo in doubt) [Example 71, N-(4-((1R,3S,5S)-3-amino-5-methylcyclohexyl)pyridin-3-yl)-6-(2,6-difluoro-4-((R)-tetrahydrofuran-3-yloxy)phenyl)-5-fluoropicolinamide], the IC50 at Pim 1 stood at 0.02 nM; against Pim 3, 0.97 nM; on Pim 2, 2.21 nM. This compound returned an EC50 in experiment [1] of 48 nM.

As for `C[C@@H]1C[C@H](N)C[C@H](c2ccncc2NC(=O)c2ccc(F)c(-c3c(F)cc(OC[C@@H](O)CO)cc3F)n2)C1` [Example 3, N-(4-((1R,3S,5S)-3-amino-5-methylcyclohexyl)pyridin-3-yl)-6-(4-((S)-2,3-dihydroxypropoxy)-2,6-difluorophenyl)-5-fluoropicolinamide], the IC50 at Pim 1 is 0.03 nM; against Pim 3, 0.55 nM; at Pim 2, 1.89 nM. In experiment [1], this compound gave a concentration for a half-maximal effect (EC50) of 53 nM.

As to `C[C@@H]1C[C@H](N)C[C@H](c2ccncc2NC(=O)c2ccc(F)c(-c3c(F)ccc(OC[C@H](O)CO)c3F)n2)C1` [Example 9, N-(4-((1R,3S,5S)-3-amino-5-methylcyclohexyl)pyridin-3-yl)-6-(3-((R)-2,3-dihydroxypropoxy)-2,6-difluorophenyl)-5-fluoropicolinamide], the figures for the IC50 against Pim 1, against Pim 3 and against Pim 2 were 0.04 nM, 1.09 nM and 3.97 nM, respectively. The midpoint of the response in experiment [1], the EC50, lay at 72 nM.

As for `C[C@@H]1C[C@H](N)C[C@H](c2ccncc2NC(=O)c2ccc(F)c(-c3c(F)ccc(OC[C@@H](O)CO)c3F)n2)C1` [Example 10, N-(4-((1R,3S,5S)-3-amino-5-methylcyclohexyl)pyridin-3-yl)-6-(3-((S)-2,3-dihydroxypropoxy)-2,6-difluorophenyl)-5-fluoropicolinamide], the IC50 was 0.03 nM at Pim 1, 0.95 nM against Pim 3 and 4.96 nM against Pim 2. The compound further returned an EC50 in experiment [1] of 126 nM.

Take `COCCOc1cc(F)c(-c2nc(C(=O)Nc3cnccc3[C@@H]3C[C@H](C)C[C@H](N)C3)ccc2F)c(F)c1` [Example 12, N-(4-((1R,3S,5S)-3-amino-5-methylcyclohexyl)pyridin-3-yl)-6-(2,6-difluoro-4-(2-methoxyethoxy)phenyl)-5-fluoropicolinamide]: the figures for the IC50 against Pim 1, against Pim 3 and on Pim 2 were 0.04 nM, 1.39 nM and 2.91 nM, respectively. Also, the EC50 in experiment [1] is 120 nM.

With `COCCOc1ccc(F)c(-c2nc(C(=O)Nc3cnccc3[C@@H]3C[C@H](C)C[C@H](N)C3)ccc2F)c1F` [Example 13, N-(4-((1R,3S,5S)-3-amino-5-methylcyclohexyl)pyridin-3-yl)-6-(2,6-difluoro-3-(2-methoxyethoxy)phenyl)-5-fluoropicolinamide], the IC50 was found to be 0.04 nM against Pim 1, 1.27 nM against Pim 3 and 9.36 nM at Pim 2. This compound showed an EC50 in experiment [1] of 187 nM.

As to `COc1cc(F)c(-c2nc(C(=O)Nc3cnccc3N3C[C@@H](N)[C@H](O)[C@@H](C)C3)ccc2F)c(F)c1` [Example 15, N-(4-((3R,4R,5S)-3-amino-4-hydroxy-5-methylpiperidin-1-yl)pyridin-3-yl)-6-(2,6-difluoro-4-methoxyphenyl)-5-fluoropicolinamide], the IC50 at Pim 1 worked out at 0.02 nM; at Pim 3, 0.35 nM; on Pim 2 it was 1.14 nM. In experiment [1], this compound returned an EC50 of 21 nM.

Regarding `C[C@H]1CN(c2ccncc2NC(=O)c2ccc(F)c(-c3c(F)cc(S(C)(=O)=O)cc3F)n2)C[C@@H](N)[C@@H]1O` [Example 16, N-(4-((3R,4R,5S)-3-amino-4-hydroxy-5-methylpiperidin-1-yl)pyridin-3-yl)-6-(2,6-difluoro-4-(methylsulfonyl)phenyl)-5-fluoropicolinamide], the IC50 at Pim 1 is 0.08 nM; at Pim 3, 2.66 nM; against Pim 2, 2.07 nM. In addition, the EC50 in experiment [1] was determined as 37 nM.

Take `COCCOc1ccc(F)c(-c2nc(C(=O)Nc3cnccc3N3C[C@@H](N)[C@H](O)[C@@H](C)C3)ccc2F)c1F` [Example 17, N-(4-((3R,4R,5S)-3-amino-4-hydroxy-5-methylpiperidin-1-yl)pyridin-3-yl)-6-(2,6-difluoro-3-(2-methoxyethoxy)phenyl)-5-fluoropicolinamide]: the IC50 was 0.03 nM at Pim 1, 0.35 nM against Pim 3 and 1.92 nM on Pim 2. The EC50 in experiment [1] turned out to be 13 nM.

As to `COCCOc1ccc(F)c(-c2nc(C(=O)Nc3cnccc3[C@H]3C[C@@H](N)[C@H](O)[C@@H](C)C3)ccc2F)c1F` [Example 18, N-(4-((1R,3R,4R,5S)-3-amino-4-hydroxy-5-methylcyclohexyl)pyridin-3-yl)-6-(2,6-difluoro-3-(2-methoxyethoxy)phenyl)-5-fluoropicolinamide], the IC50 against Pim 1 is 0.13 nM; on Pim 3, 2.93 nM; against Pim 2 it was 32.3 nM. Besides, in experiment [1], the midpoint of the response, the EC50, lay at 201 nM.

Regarding `CCOc1cc(F)c(-c2nc(C(=O)Nc3cnccc3N3C[C@@H](N)[C@H](O)[C@@H](C)C3)ccc2F)c(F)c1` [Example 20, N-(4-((3R,4R,5S)-3-amino-4-hydroxy-5-methylpiperidin-1-yl)pyridin-3-yl)-6-(4-ethoxy-2,6-difluorophenyl)-5-fluoropicolinamide], the IC50 amounted to 0.02 nM at Pim 1, 0.29 nM against Pim 3 and 0.97 nM at Pim 2. This compound also gave an EC50 in experiment [1] of 7 nM.

In the case of `C[C@H]1CN(c2ccncc2NC(=O)c2ccc(F)c(-c3c(F)cc(OCCO)cc3F)n2)C[C@@H](N)[C@@H]1O` [Example 21, N-(4-((3R,4R,5S)-3-amino-4-hydroxy-5-methylpiperidin-1-yl)pyridin-3-yl)-6-(2,6-difluoro-4-(2-hydroxyethoxy)phenyl)-5-fluoropicolinamide], the figures for the IC50 at Pim 1, against Pim 3 and against Pim 2 were 0.02 nM, 0.34 nM and 1.19 nM, respectively. For the same compound, the EC50 in experiment [1] came to 13 nM.

For `C[C@H]1CN(c2ccncc2NC(=O)c2ccc(F)c(-c3c(F)cc(OC4CCOCC4)cc3F)n2)C[C@@H](N)[C@@H]1O` [Example 116, N-(4-((3R,4R,5S)-3-amino-4-hydroxy-5-methylpiperidin-1-yl)pyridin-3-yl)-6-(2,6-difluoro-4-(tetrahydro-2H-pyran-4-yloxy)phenyl)-5-fluoropicolinamide], the results for the IC50 at Pim 1, against Pim 3 and on Pim 2 were 0.01 nM, 0.2 nM and 0.58 nM, respectively.

For the compound `C[C@H]1CN(c2ccncc2NC(=O)c2ccc(F)c(-c3c(F)cc(OC4COC4)cc3F)n2)C[C@@H](N)[C@@H]1O` [Example 117, N-(4-((3R,4R,5S)-3-amino-4-hydroxy-5-methylpiperidin-1-yl)pyridin-3-yl)-6-(2,6-difluoro-4-(oxetan-3-yloxy)phenyl)-5-fluoropicolinamide], the IC50 on Pim 1 came to 0.01 nM; on Pim 3, 0.16 nM; at Pim 2 it was 0.65 nM.

For `COCCOc1cc(F)c(-c2nc(C(=O)Nc3cnccc3[C@@H]3C[C@H](C)C[C@H](N)C3)c(N)cc2F)c(F)c1` [Example 118, 3-amino-N-(4-((1R,3S,5S)-3-amino-5-methylcyclohexyl)pyridin-3-yl)-6-(2,6-difluoro-4-(2-methoxyethoxy)phenyl)-5-fluoropicolinamide], the results for the IC50 at Pim 1, at Pim 3 and against Pim 2 were 0.01 nM, 0.29 nM and 1.08 nM, respectively.

Take `CCOc1ccc(F)c(-c2nc(C(=O)Nc3cnccc3[C@@H]3C[C@H](C)C[C@H](N)C3)ccc2F)c1F` [Example 213, N-(4-((1R,3S,5S)-3-amino-5-methylcyclohexyl)pyridin-3-yl)-6-(3-ethoxy-2,6-difluorophenyl)-5-fluoropicolinamide]: the IC50 is 0.06 nM against Pim 1, 1.45 nM on Pim 3 and 8.92 nM against Pim 2.

Turning to `CCOc1cc(F)c(-c2nc(C(=O)Nc3cnccc3[C@@H]3C[C@H](C)C[C@H](N)C3)ccc2F)c(F)c1` [Example 225, N-(4-((1R,3S,5S)-3-amino-5-methylcyclohexyl)pyridin-3-yl)-6-(4-ethoxy-2,6-difluorophenyl)-5-fluoropicolinamide], the results for the IC50 at Pim 1, at Pim 3 and against Pim 2 were 0.02 nM, 0.51 nM and 1.78 nM, respectively.

Consider `CCOc1cc(F)c(-c2nc(C(=O)Nc3cnccc3[C@H]3C[C@@H](N)[C@H](O)[C@@H](C)C3)ccc2F)c(F)c1` [Example 226, N-(4-((1R,3R,4R,5S)-3-amino-4-hydroxy-5-methylcyclohexyl)pyridin-3-yl)-6-(4-ethoxy-2,6-difluorophenyl)-5-fluoropicolinamide], for which the IC50 on Pim 1 was 0.04 nM; on Pim 3, 0.75 nM; at Pim 2, 3.51 nM.
